molecular target: T1, complement factor B (Homo sapiens, UniProt P00751); experiment: Complement hemolytic activity assay (lysis of rabbit erythrocytes by normal human serum); assay type: cell-based; settings: normal human serum in GVB0 buffer with 10 mM Mg-EGTA, 37° C., A415
T1 construct: from tissue; host or cells: normal human serum from healthy volunteers
Description: 4. Complement Hemolytic Activity Assay
The hemolysis experiment was carried out by referring to the description in Xuan Yuan et al., Haematologica. […] Prior to the experiment, the optimal concentration of normal human serum (NHS) required to achieve 100% lysis of rabbit erythrocytes (REs) was obtained by titration testing. […] A GVB0 buffer containing 10 mM Mg-EGTA and containing NHS and RE but no test compound was used as a positive control group (100% lysis). A GVB0 buffer containing 10 mM Mg-EGTA and containing inactivated NHS (heated at 56° C. for 30 min or at 65° C. for 5 min) and RE but no test compound was used as a negative control group (0% lysis). The samples were centrifuged at 2000 g for 5 min, and the supernatant was collected. Absorbance at 415 nm (A415) was measured using a microplate reader (Molecular Devices, SpectraMax i3X). IC50 values were calculated from percent hemolysis as a function of test compound concentration by non-linear regression.

T1 sequence (P00751 26-764): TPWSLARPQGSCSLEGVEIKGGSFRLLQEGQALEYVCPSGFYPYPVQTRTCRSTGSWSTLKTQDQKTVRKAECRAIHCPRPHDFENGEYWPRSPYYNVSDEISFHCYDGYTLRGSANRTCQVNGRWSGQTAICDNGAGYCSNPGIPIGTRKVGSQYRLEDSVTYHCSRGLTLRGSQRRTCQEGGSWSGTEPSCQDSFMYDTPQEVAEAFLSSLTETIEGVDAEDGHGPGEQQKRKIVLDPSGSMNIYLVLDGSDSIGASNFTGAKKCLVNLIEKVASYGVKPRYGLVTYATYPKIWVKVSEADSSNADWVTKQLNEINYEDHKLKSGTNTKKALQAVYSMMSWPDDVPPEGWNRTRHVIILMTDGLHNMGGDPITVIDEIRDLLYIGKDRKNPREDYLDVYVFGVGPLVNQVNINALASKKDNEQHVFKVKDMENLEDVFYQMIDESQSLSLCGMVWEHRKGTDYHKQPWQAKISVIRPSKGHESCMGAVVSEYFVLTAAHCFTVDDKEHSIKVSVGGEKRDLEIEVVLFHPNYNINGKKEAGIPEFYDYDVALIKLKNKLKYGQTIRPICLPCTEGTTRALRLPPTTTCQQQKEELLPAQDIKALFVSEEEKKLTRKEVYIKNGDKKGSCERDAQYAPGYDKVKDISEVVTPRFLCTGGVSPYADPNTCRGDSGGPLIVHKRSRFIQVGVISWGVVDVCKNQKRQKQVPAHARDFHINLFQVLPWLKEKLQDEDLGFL

Compared with `CCO[C@H]1CCN(Cc2c(OC)cc(C)c3c2CCN3)[C@H](c2ccc(C(=O)O)cc2)C1` [Example 1], `CCO[C@H]1CCN(Cc2c(OC)cc(C)c3c2CCC(=O)N3)[C@H](c2ccc(C(=O)O)cc2)C1` [Example 16] is higher in IC50: 1500 nM for the first, greater than 5000 nM for the second.

Going from `CCO[C@H]1CCN(Cc2c(OC)cc(C)c3[nH]cnc23)[C@H](c2ccc(C(=O)O)cc2)C1` [Example 4] to `CCO[C@H]1CCN(Cc2c(OC)cc(C)c3[nH]nnc23)[C@H](c2ccc(C(=O)O)cc2)C1` [Example 6], the IC50 rises from 900 nM to greater than 5000 nM.

`CCO[C@H]1CCN(Cc2c(OC)cc(C)c3[nH]ncc23)[C@H](c2ccc(C(=O)O)cc2)C1` [Example 5] and `CCO[C@H]1CCN(Cc2c(OC)cc(C)c3occc23)[C@H](c2ccc(C(=O)O)cc2)C1` [Example 10] are within 1.5-fold of each other in IC50: 1200 nM for the first, 1300 nM for the second.

`CCO[C@H]1CCN(Cc2c(OC)cc(C)c3c2CCC3)[C@H](c2ccc(C(=O)O)cc2)C1` [Example 8] and `CCO[C@H]1CCN(Cc2c(OC)cc(C)c3ccccc23)[C@H](c2ccc(C(=O)O)cc2)C1` [Example 14] cannot be ordered by IC50: greater than 5000 nM for the first, greater than 5000 nM for the second.

`CCO[C@H]1CCN(Cc2c(OC)cc(C(F)(F)F)c3[nH]ccc23)[C@H](c2ccc(C(=O)O)cc2)C1` [Example 11] and `CCO[C@H]1CCN(Cc2c(OC)cc(C#N)c3[nH]ccc23)[C@H](c2ccc(C(=O)O)cc2)C1` [Example 12] cannot be ordered by IC50: greater than 5000 nM for the first, greater than 5000 nM for the second.

Compared with `CCO[C@H]1CCN(Cc2c(OC)cc(C3CC3)c3[nH]ccc23)[C@H](c2ccc(C(=O)O)cc2)C1` [Example 13], `CCO[C@H]1CCN(Cc2c(C)cc(C)c3ccccc23)[C@H](c2ccc(C(=O)O)cc2)C1` [Example 15] is higher in IC50: 1000 nM for the first, greater than 5000 nM for the second. The first is the more potent here.

Source: patent US20230331710A1, “HETEROCYCLIC COMPOUND, PREPARATION METHOD AND USE THEREOF” (SHANGHAI MEIYUE BIOTECH DEVELOPMENT CO. LTD, priority 2020, published 2023)
